Consider 44 molecules from US6750244B2, “Compounds active at a novel site on receptor-operated calcium channels useful for treatment of neurological disorders and diseases” (NPS Pharmaceuticals, Inc., priority 1993, dated 2004).

Several values for one entry are separate records, joined by “and”; a condition that tells them apart may be missing. Equal entries are not always repeated. Structures can show the parent of a compound that is named as a salt. Where two headings read alike, the source gives them in different places. Bounds are passed on as bounds.

Series [1] has as its system mean arterial blood pressure.
The subject of the next series is NMDA receptor. The experiment in a line: Inhibition of NMDA/glycine-induced increases in intracellular calcium in cultured rat cerebellar granule cells (RCGC). The class given is cell-based. Particulars: for IC50: read-out: IC50 (μM) vs. NMDA. For orientation: Calcium flux is commonly read through the fluorescence of an indicator in the cells.
For series [2], the target named is NMDA receptor-ionophore complex (site labeled by [3H]MK-801). The experiment in a line: Inhibition of [3H]MK-801 binding in rat cortical/hippocampal washed membrane preparations. The following applies: read-out: IC50 (μM) vs. [3H]MK-801.
A further series deals with sound-induced seizures. Kind of series: Sound-induced seizures in Frings mice (reflex epilepsy). The class given is in vivo. Particulars: Mus musculus, ip; Frings mice.
A further series can be described thus: in vivo. Particulars: Frings, mouse, in vivo, ip. The procedure: In this assay, Frings and CF1 mice were injected with test compound and placed on a knurled rod which rotated at a speed of 6 rpm. The ability of the mice to maintain equilibrium for long periods of time was determined; those mice that were unable to maintain equilibrium on the rotorod for 1 min in each of 3 trials were considered impaired.

Where [3] appears, read: NMDA/glycine-induced increases in intracellular calcium, cultured rat cerebellar granule cells.
The mark [4] stands for this setting: rat cortical/hippocampal washed membranes.

For orientation: IC50 means the concentration that inhibits the measured activity by half. The ED50 is the midpoint of the dose-response relation. The low end stands for an effect at a small dose, the high end for a need for a large dose.

Regarding `CCNCCCNCCCNCCCNC(=O)Cc1c[nH]c2ccc(F)cc12` [Compound 11], in series [1] (1 mg/kg i.v., rats), the “Drop in Mean Arterial Blood Pressure” value is on record as 20 mm Hg at 1 and the “Drop in Mean Arterial Blood Pressure: duration” value is “mg/kg i.v., 30 min”. The “duration of the hypotensive effect” value in series [1] (systemic administration in rats) is “approximately 30 min”. Further, the IC50 with NMDA receptor (setting [3]) stood at 4 µM.

With `CC(CN)C(c1cccc(F)c1)c1cccc(F)c1` (centres unmarked) [Compound 21, 3,3-bis(3-fluorophenyl)-2-methyl-1-propylamine], the IC50 with NMDA receptor (setting [3]) amounted to 0.038 µM; in series [2] (setting [4]), 0.457 µM. This molecule also gave an ED50 in the series on sound-induced seizures of 3.41 mg/kg. This molecule also displayed a TD50 in “in vivo” of 15.3 mg/kg.

With `NCCC(c1cccc(Cl)c1)c1cccc(Cl)c1` [Compound 31, 3,3-bis(3-chlorophenyl)-1-propylamine], the IC50 in the series with NMDA receptor (setting [3]) is 0.052 µM; in series [2] (setting [4]), 1.3 µM. This molecule returned an ED50 in the series on sound-induced seizures of 6 mg/kg. This molecule gave a TD50 in “in vivo” of 10 to 20 mg/kg.

Regarding `COc1ccccc1OC(CCN)c1cccc(F)c1` (centres unmarked) [Compound 121], the values for the IC50 (in the series with NMDA receptor (setting [3]); in series [2] (setting [4])) were 0.656 µM and 0.67 µM, respectively.

As to `CN(C)CCC(c1cccc(F)c1)c1cccc(F)c1` [Compound 123, N,N-dimethyl-3,3-bis(3-fluorophenyl)-1-propylamine], the IC50 was 9.6 µM in the series on NMDA receptor (setting [3]) and above 3 µM in series [2] (setting [4]).

For the molecule `NCCCc1ccccc1-c1cccc(F)c1` [Compound 124], the IC50 in the series with NMDA receptor (setting [3]) amounted to 3.5 µM; in series [2] (setting [4]), 14.3 µM.

Take `NCCC(Cc1ccccc1)c1ccccc1` (centres unmarked) [Compound 125]: the IC50 was found to be 1.7 µM with NMDA receptor (setting [3]) and 6.7 µM in series [2] (setting [4]).

Take `NCC(Cc1cccc(F)c1)Cc1cccc(F)c1` [Compound 126]: the IC50 in the series on NMDA receptor (setting [3]) was found to be 0.398 µM; in series [2] (setting [4]), 6 µM.

With `NCCCc1ccccc1Cc1ccccc1` [Compound 127], the half-maximal inhibitory concentration (IC50) in the series with NMDA receptor (setting [3]) was found to be 1.2 µM; in series [2] (setting [4]) it was 17.5 µM.

For the molecule `NCCc1ccccc1Cc1ccccc1` [Compound 128], the IC50 in the series with NMDA receptor (setting [3]) turned out to be 0.646 µM; in series [2], 5.5 µM.

Take `NCCc1ccccc1Oc1ccccc1` [Compound 132]: the IC50 is 1.3 µM in the series with NMDA receptor (setting [3]) and 6.4 µM in series [2] (setting [4]).

On to `NCC(Cc1ccccc1)c1ccccc1` (centres unmarked) [Compound 133], for which the figures for the IC50 (in the series with NMDA receptor (setting [3]); in series [2] (setting [4])) were 0.76 µM and 3 µM, respectively.

In the case of `COc1cccc(C(CCN)c2cccc(Cl)c2)c1` (centres unmarked) [Compound 136], the IC50 is 0.139 µM with NMDA receptor (setting [3]) and 0.706 µM in series [2] (setting [4]).

Take `NCC=C(c1cccc(F)c1)c1cccc(F)c1` [Compound 139, 3,3-bis(3-fluorophenyl)-prop-2-ene-1-amine]: the IC50 in the series on NMDA receptor (setting [3]) is 1.97 µM and 1.4 µM; in series [2] (setting [4]), 5.6 µM.

Turning to `COc1cccc(/C(=C\CN)c2cccc(F)c2)c1` [Compound 141], the IC50 in the series with NMDA receptor (setting [3]) turned out to be 4.26 µM; in series [2] (setting [4]), 8.97 µM.

In the case of `CNCCC(c1cccc(F)c1)c1cccc(OC)c1` (centres unmarked) [Compound 142], the IC50 in the series with NMDA receptor (setting [3]) was found to be 1.01 µM; in series [2] (setting [4]), 1.54 µM.

Take `CNCCC(Oc1cccc(F)c1)c1cccc(F)c1` (centres unmarked) [Compound 145]: the IC50 in the series with NMDA receptor (setting [3]) was determined as 0.098 µM; in series [2] (setting [4]), 0.626 µM.

Consider `NCCC(Oc1ccccc1)c1ccccc1` (centres unmarked) [Compound 146], for which the IC50 in the series on NMDA receptor (setting [3]) stood at 0.829 µM; in series [2] (setting [4]) it was 0.372 µM.

Turning to `NCCC(Oc1ccccc1)c1cccc(Cl)c1` (centres unmarked) [Compound 148], the IC50 amounted to 0.549 µM in the series on NMDA receptor (setting [3]) and 0.373 µM in series [2] (setting [4]).

On to `NCCC(Oc1cccc(Cl)c1)c1cccc(Cl)c1` (centres unmarked) [Compound 149], for which the IC50 in the series on NMDA receptor (setting [3]) amounted to 0.085 µM; in series [2] (setting [4]) it was 0.15 µM.

For the molecule `NCCC(Oc1cccc(F)c1)c1cccc(Cl)c1` (centres unmarked) [Compound 150], the figures for the IC50 (in the series on NMDA receptor (setting [3]); in series [2] (setting [4])) were 0.195 µM and 0.351 µM, respectively.

On to `CCCC(NCCC(c1ccccc1)c1ccccc1)c1ccccc1` (centres unmarked) [Compound 157], for which the results for the IC50 (in the series on NMDA receptor (setting [3]); in series [2] (setting [4])) were 0.142 µM and 23.2 µM, respectively.

Take `CC(C)C(NCCC(c1ccccc1)c1ccccc1)c1ccccc1` (centres unmarked) [Compound 158]: the IC50 came out at 0.351 µM in the series on NMDA receptor (setting [3]) and 39.6 µM in series [2] (setting [4]).

With `CCC(NCCC(c1ccccc1)c1ccccc1)c1cccc(Cl)c1` (centres unmarked) [Compound 159], the IC50 amounted to 0.185 µM in the series with NMDA receptor (setting [3]) and 10.4 µM in series [2] (setting [4]).

Take `CCC(NCCC(c1ccccc1)c1ccccc1)c1ccc(Cl)cc1` (centres unmarked) [Compound 160]: the IC50 in the series with NMDA receptor (setting [3]) came out at 7.35 µM; in series [2] (setting [4]), 48.9 µM.

With `CCC(NCCC(c1ccccc1)c1ccccc1)c1cccc(Br)c1` (centres unmarked) [Compound 161], the results for the IC50 (in the series on NMDA receptor (setting [3]); in series [2] (setting [4])) were 0.247 µM and 5.62 µM, respectively.

Take `CCC(NCCC(c1ccccc1)c1ccccc1)c1ccccc1F` (centres unmarked) [Compound 163]: the IC50 in the series with NMDA receptor (setting [3]) was determined as 0.326 µM; in series [2] (setting [4]) it was 10.3 µM.

In the case of `CCC(NCCC(c1ccccc1)c1ccccc1)c1cccc(F)c1` (centres unmarked) [Compound 164], the values for the IC50 (with NMDA receptor (setting [3]); in series [2] (setting [4])) were 0.475 µM and 18.3 µM, respectively.

As for `CCC(NCCC(c1ccccc1)c1ccccc1)c1ccc(F)cc1` (centres unmarked) [Compound 165], the figures for the IC50 (in the series with NMDA receptor (setting [3]); in series [2] (setting [4])) were 0.337 µM and 171 µM, respectively.

As to `CCC(NCCC(c1ccccc1)c1ccccc1)c1ccc(OC)cc1` (centres unmarked) [Compound 166], the values for the IC50 (with NMDA receptor (setting [3]); in series [2] (setting [4])) were 0.619 µM and 36.7 µM, respectively.

In the case of `CCC(NCCC(c1ccccc1)c1ccccc1)c1cccc(C)c1` (centres unmarked) [Compound 168], the IC50 with NMDA receptor (setting [3]) came to 0.092 µM; in series [2] (setting [4]), 17.4 µM.

In the case of `CCC(NCCC(c1ccccc1)c1ccccc1)c1ccc(C)cc1` (centres unmarked) [Compound 169], the IC50 was 0.298 µM in the series with NMDA receptor (setting [3]) and 26.7 µM in series [2] (setting [4]).

On to `CCC(NCCC(c1ccccc1)c1ccccc1)c1cccc([N+](=O)[O-])c1` (centres unmarked) [Compound 170], for which the IC50 turned out to be 0.238 µM in the series with NMDA receptor (setting [3]) and 57 µM in series [2] (setting [4]).

Consider `c1ccc(C(CCNC(c2ccccc2)C2CC2)c2ccccc2)cc1` (centres unmarked) [Compound 171], for which the IC50 in the series with NMDA receptor (setting [3]) was determined as 0.31 µM; in series [2] (setting [4]), 39.6 µM.

Consider `COc1ccc(C(=CCN)c2cccc(F)c2)cc1F` [Compound 172, (E))- and (Z)-3-(3-Fluoro-4-methoxy)-3-(3-fluorophenyl)allylamine hydrochloride], for which the IC50 worked out at 38 µM in the series with NMDA receptor (setting [3]) and 37.3 µM in series [2] (setting [4]).

As to `Cc1ccccc1OC(CCN)c1cccc(F)c1` (centres unmarked) [Compound 181], the IC50 in the series with NMDA receptor (setting [3]) was determined as 0.081 µM; in series [2] (setting [4]), 0.632 µM.

In the case of `NCCC1c2ccccc2Oc2ccccc21` [Compound 182], the concentration for half-maximal inhibition (IC50) with NMDA receptor (setting [3]) came out at 2.6 µM; in series [2] (setting [4]), 7.05 µM.

As for `NCCC1c2ccccc2Sc2ccccc21` [Compound 183], the IC50 was determined as 0.676 µM in the series with NMDA receptor (setting [3]) and 5.01 µM in series [2] (setting [4]).

Regarding `NCCC1c2ccccc2C=Cc2ccccc21` [Compound 184], the half-maximal inhibitory concentration (IC50) in the series with NMDA receptor (setting [3]) was 1.5 µM; in series [2] (setting [4]), 1.51 µM and 1.65 µM.

Regarding `NCC[C@H](Oc1cccc(F)c1)c1ccccc1` [Compound 186], the IC50 in the series with NMDA receptor (setting [3]) worked out at 0.155 µM; in series [2] (setting [4]), 0.123 µM.

Consider `NCCC1c2ccccc2COc2ccccc21` (centres unmarked) [Compound 187, 11-(2-Aminoethyl)-11H-10,11-dihydrodibenzo[b,c]oxepine hydrochloride], for which the IC50 with NMDA receptor (setting [3]) is 1.78 µM; in series [2] (rat cortical/hippocampal washed membranes, hydrochloride), 2.01 µM and 2.06 µM.

For the molecule `NCCN1c2ccccc2CCc2ccccc21` [Eli Lilly Compound, reference compound], the IC50 with NMDA receptor (setting [3]) is 0.609 µM; in series [2] (setting [4]), 1.17 µM.

On to `CNCCC=C1c2ccccc2CCc2ccccc21` [Nortriptyline, reference compound], for which the IC50 in the series with NMDA receptor came out at 3.7 µM; in series [2] it was 5.67 µM.

As to `CNCCCC1c2ccccc2C=Cc2ccccc21` [protriptyline, reference compound], the “% inhibition vs. NMDA” value with NMDA receptor was 73% @ 10 μM. The IC50 in the series with NMDA receptor (setting [3]) was at most 10 µM; in series [2] (setting [4]), 21.4 µM.
